For experiment [1], the target named is T1, cytoplasmic domain of the human CSF-1R (Homo sapiens, UniProt P07333).
T1 construct: Recombinant protein corresponding to the cytoplasmic domain of the human CSF-1R; purchased Invitrogen Corporation, Carlsbad, Calif; PV3249
T1 sequence (P07333 539-972 limits assumed): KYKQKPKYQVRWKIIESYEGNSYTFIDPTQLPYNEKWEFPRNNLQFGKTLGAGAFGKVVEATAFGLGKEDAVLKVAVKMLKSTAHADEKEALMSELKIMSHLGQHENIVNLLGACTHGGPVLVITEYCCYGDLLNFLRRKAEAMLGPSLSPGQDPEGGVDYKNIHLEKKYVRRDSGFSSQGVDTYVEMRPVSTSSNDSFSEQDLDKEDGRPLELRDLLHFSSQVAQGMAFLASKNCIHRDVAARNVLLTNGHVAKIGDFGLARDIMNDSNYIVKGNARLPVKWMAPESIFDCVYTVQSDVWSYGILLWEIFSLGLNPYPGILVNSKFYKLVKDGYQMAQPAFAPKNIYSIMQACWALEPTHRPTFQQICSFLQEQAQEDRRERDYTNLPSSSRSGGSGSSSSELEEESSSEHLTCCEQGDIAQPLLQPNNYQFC
Put plainly: In vitro kinase assay for colony stimulating factor-1 receptor (AlphaScreen). As to conditions: tested at about 1 μM, read-out: CSF-1R percent inhibition. The experiment is classed as biochemical. The method, boiled down:
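Kinase reaction used 4 nM recombinant cytoplasmic domain at 1 μM ATP in 50 mM Hepes pH 7.5 with 5 mM MgCl2, 10 mM MnCl2, 0.1% BSA, 1.0 mM DTT and 0.01% Tween 80. Compounds were serially diluted 3-fold from 25 μM. Phosphopeptide was detected by AlphaScreen, PT66 anti-phosphotyrosine acceptor plus streptavidin donor beads, read after overnight incubation.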
Background: Alpha assays give light when donor and acceptor beads are brought close together.

A further experiment has as its target T2, kinase domain of PDGFRβ (Homo sapiens, UniProt P09619).
T2 construct: The kinase domain of PDGFRβ was assayed in 50 mM Hepes; purchased Invitrogen P3082
Put plainly: Inhibition of PDGFRb kinase signaling in an in vitro biochemical assay (alphascreen). As to conditions: tested at about 1 μM, read-out: PDGFRβ percent inhibition.

Experiment [2] concerns MNFS60 (murine AML cells). Kind of experiment: Cell viability assay in MCSF dependent MNFS60 cells (Cell Titer Glo). It is filed as cell-based. As to conditions: Mus musculus, tested at about 1 μM; MNFS60 cells; read-out: M-NFS-60 CP percent inhibition. As for the experimental part:
Cell viability was assessed by Cell Titer Glo, Promega. […] Test compounds were serially diluted (3 fold) in DMSO to 500× the final concentration. […] Final concentration of MCSF is 10 ng/ml. Cells were incubated for 72 hrs at 37° C., 5% CO2. After the incubation 100 μl Cell Titer Glo is added to each well to determine viable cells. The assay was performed according to the manufacturer's instruction (Promega Corporation, Madison, Wis. USA). Each experimental condition was performed in triplicate. Raw data was imported in Abase and EC50s calculated with XL-fit data analysis software.
In general terms: In ATP-based viability assays light output follows the ATP content of the culture.

Another experiment has as its target T3, kinase domain of cKIT (Homo sapiens, UniProt P10721).
T3 construct: The kinase domain of cKIT was assayed in 50 mM Hepes; purchased Upstate 14-559
Put plainly: Inhibition of cKIT kinase signaling in an in vitro biochemical assay (alphascreen). As to conditions: tested at about 1 μM, read-out: cKit percent inhibition.

The structures appear in SMILES notation. Where two headings read alike, the source gives them in different places.

By inhibition is commonly meant the relative decrease from the control value, in per cent.

T3 sequence (P10721 589-937 limits assumed): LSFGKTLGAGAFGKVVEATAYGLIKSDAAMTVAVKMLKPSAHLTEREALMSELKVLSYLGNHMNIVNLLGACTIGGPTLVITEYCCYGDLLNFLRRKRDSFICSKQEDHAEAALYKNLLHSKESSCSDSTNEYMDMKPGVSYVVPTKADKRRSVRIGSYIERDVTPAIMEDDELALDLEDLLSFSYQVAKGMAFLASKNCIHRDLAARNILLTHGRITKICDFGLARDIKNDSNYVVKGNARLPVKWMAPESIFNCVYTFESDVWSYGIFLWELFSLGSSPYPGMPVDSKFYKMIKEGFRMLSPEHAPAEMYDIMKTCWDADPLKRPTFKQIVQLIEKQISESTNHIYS
T2 sequence (P09619 600-962 limits assumed): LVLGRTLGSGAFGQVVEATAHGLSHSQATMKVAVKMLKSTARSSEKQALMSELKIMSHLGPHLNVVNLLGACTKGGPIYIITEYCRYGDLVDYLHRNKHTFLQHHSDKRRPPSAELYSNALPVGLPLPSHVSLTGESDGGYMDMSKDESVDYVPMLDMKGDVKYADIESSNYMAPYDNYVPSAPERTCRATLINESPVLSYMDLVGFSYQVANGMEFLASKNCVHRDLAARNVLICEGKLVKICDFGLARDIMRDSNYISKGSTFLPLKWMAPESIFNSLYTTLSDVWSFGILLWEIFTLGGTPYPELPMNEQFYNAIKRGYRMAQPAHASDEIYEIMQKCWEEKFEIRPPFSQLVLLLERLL

With `CC[C@@H](Nc1nc2ccc(Oc3ccnc(C(=O)NC)c3)cc2o1)c1ccccc1` [Compound 19, 4-[2-((R)-1-Phenyl-propyl-amino)-benzooxazol-6-yloxy]-pyridine-2-carboxylic acid methylamide], the inhibition at 1 µM turned out to be 100% in experiment [1], 2% on kinase domain of PDGFRβ and 36% in experiment [2].
Taken in the same sequence, the figures for `CNC(=O)c1cc(Oc2ccc3nc(NC4CCCCC4)oc3c2)ccn1` [Compound 24, 4-(2-Cyclohexylamino-benzooxazol-6-yloxy)-pyridine-2-carboxylic acid methylamide] were 99%, 20% and 12%.
Taken in the same sequence, the figures for `CNC(=O)c1cc(Oc2ccc3nc(Nc4ccccc4CCN4CCOCC4)oc3c2)ccn1` [Compound 48, 4-{2-[2-(2-Morpholin-4-yl-ethyl)-phenylamino]-benzo-oxazol-6-yloxy}-pyridine-2-carboxylic acid methylamide] were 84%, 0% and 0%.
As for `CNC(=O)c1cc(Oc2ccc3nc(Nc4ccccc4N4CCOCC4)oc3c2)ccn1` [Compound 3, 4-[2-(2-Morpholin-4-yl-phenylamino)-benzooxazol-6-yloxy]-pyridin-2-carboxylic acid methylamide], the inhibition at 1 µM was 96% in experiment [1] and 0% in experiment [2].
For the compound `CNC(=O)c1cc(Oc2ccc3nc(Nc4ccccc4-c4cnco4)oc3c2)ccn1` [Compound 46, 4-[2-(2-Oxazol-5-yl-phenylamino)-benzooxazol-6-yloxy]-pyridine-2-carboxylic acid methylamide], the inhibition at 1 µM was 94% in experiment [1], 15% at kinase domain of PDGFRβ and 1% in experiment [2].
With `Cn1cc(-c2cc(Oc3ccc4nc(NCCC5CCOCC5)sc4c3)ccn2)cn1` [Example 361, 6-(2-(1-methyl-1H-pyrazol-4-yl)pyridin-4-yloxy)-N-(2-(tetrahydro-2H-pyran-4-yl)ethyl)benzo[d]thiazol-2-amine], the inhibition at 1 µM amounted to 100% in experiment [1], 75% at kinase domain of PDGFRβ and 100% on kinase domain of cKIT.
As to `NCc1cc(Oc2ccc3nc(NCC4CCCCC4)oc3c2)ccn1` [Compound 111, [6-(2-Aminomethyl-pyridin-4-yloxy)-benzooxazol-2-yl]-cyclohexylmethyl-amine], the inhibition at 1 µM in experiment [1] came to 25%; on kinase domain of PDGFRβ, 2%; at kinase domain of cKIT it was 15%.
In the case of `CNC(=O)c1cc(Oc2ccc3nc(N[C@H]4CCCC[C@H]4NC(C)=O)sc3c2)ccn1` [Example 295, 4-(2-((1S,2R)-2-acetamidocyclohexylamino)benzo[d]thiazol-6-yloxy)-N-methylpicolinamide], the inhibition at 1 µM in experiment [1] (compounds of Table 3) amounted to 85%; at kinase domain of PDGFRβ (compounds of Table 3), 0%; on kinase domain of cKIT (compounds of Table 3) it was 5%.
In the case of `CNC(=O)c1cc(Oc2ccc3nc(NCC4CN(Cc5ccccc5)CCO4)oc3c2)ccn1` (stereo not shown) [Compound 120, 4-{2-[(4-Benzyl-morpholin-2-ylmethyl)-amino]-benzooxazol-6-yloxy}-pyridine-2-carboxylic acid methylamide], the inhibition at 1 µM in experiment [1] amounted to 75%; at kinase domain of PDGFRβ it was 0%; on kinase domain of cKIT, 5%.
Take `O[C@@H]1CCCC[C@H]1Nc1nc2ccc(Oc3ccnc(N4CCCCC4)c3)cc2s1` [Cmpd 174, (1R,2R)-2-(6-(2-(piperidin-1-yl)pyridin-4-yloxy)benzo[d]thiazol-2-ylamino)cyclohexanol]: the results for the inhibition at 1 µM (in experiment [1] (compounds of Table 3); on kinase domain of PDGFRβ (compounds of Table 3); at kinase domain of cKIT (compounds of Table 3)) were 86%, 3% and 18%, respectively.
For the compound `CNC(=O)c1cc(Oc2ccc3nc(NC4CCN(c5ccccc5)CC4)oc3c2)ccn1` [Compound 107, 4-[2-(1-Phenyl-piperidin-4-ylamino)-benzooxazol-6-yloxy]-pyridine-2-carboxylic acid methylamide], the inhibition at 1 µM is 67% in experiment [1], 0% at kinase domain of PDGFRβ and 8% at kinase domain of cKIT.
In the case of `O[C@@H]1CCCC[C@H]1Nc1nc2ccc(Oc3ccnc(C4CC4)c3)cc2s1` [Cmpd 169, (1R,2R)-2-(6-(2-cyclopropylpyridin-4-yloxy)benzo[d]thiazol-2-ylamino)cyclohexanol], the results for the inhibition at 1 µM (in experiment [1] (compounds of Table 3); on kinase domain of PDGFRβ (compounds of Table 3); at kinase domain of cKIT (compounds of Table 3)) were 75%, 0% and 12%, respectively.
For `O=C(O)c1cc(Oc2ccc3nc(NCC4CCCCC4)oc3c2)ccn1` [Compound 60, 4-[2-(Cyclohexylmethyl-amino)-benzooxazol-6-yloxy]-pyridine-2-carboxylic acid], the inhibition at 1 µM in experiment [1] was 92%; at kinase domain of PDGFRβ, 2%; at kinase domain of cKIT, 6%.
The matching figures for `CNC(=O)c1cc(Oc2ccc3nc(NCCN4CCCCC4)oc3c2)ccn1` [Compound 64, 4-[2-(2-Piperidin-1-yl-ethyl-amino)-benzooxazol-6-yloxy]-pyridine-2-carboxylic acid methylamide]: 77%, 21% and 0%.
As to `CNC(=O)c1cc(Oc2ccc3nc(Nc4ccc(Br)cc4)oc3c2)ccn1` [Compound 1, 4-[2-(4-Bromo-phenylamino)-benzooxazol-6-yloxy]-pyridine-2-carboxylic acid methylamide], the inhibition at 1 µM was found to be 99% in experiment [1] and 21% in experiment [2].
As for `CNC(=O)c1cc(Oc2ccc3nc(NC4CCCCCCC4)sc3c2)ccn1` [Compound 129], the values for the inhibition at 1 µM (in experiment [1] (compounds of Table 3); on kinase domain of PDGFRβ (compounds of Table 3); on kinase domain of cKIT (compounds of Table 3)) were 100%, 99% and 99%, respectively.
As to `CNC(=O)c1cc(Oc2cc3sc(NCC4CCCCC4)nc3cc2F)ccn1` [Example 379, 4-(2-(cyclohexylmethylamino)-5-fluorobenzo[d]thiazol-6-yloxy)-N-methylpicolinamide], the inhibition at 1 µM was determined as 77% in experiment [1], 36% at kinase domain of PDGFRβ and 16% at kinase domain of cKIT.
With `CN1CCN(c2cc(Oc3ccc4nc(N[C@@H]5CCCC[C@H]5O)sc4c3)ccn2)CC1` [Cmpd 176, (1R,2R)-2-(6-(2-(4-methylpiperazin-1-yl)pyridin-4-yloxy)benzo[d]thiazol-2-ylamino)cyclohexanol], the inhibition at 1 µM in experiment [1] (compounds of Table 3) was determined as 63%; at kinase domain of PDGFRβ (compounds of Table 3), 0%; at kinase domain of cKIT (compounds of Table 3), 12%.
On to `Cn1cc(-c2cc(Oc3ccc4nc(N[C@@H]5CCCc6ccccc65)sc4c3)ccn2)cn1` [Example 363, (R)-6-(2-(1-methyl-1H-pyrazol-4-yl)pyridin-4-yloxy)-N-(1,2,3,4-tetrahydronaphthalen-1-yl)benzo[d]thiazol-2-amine], for which the inhibition at 1 µM in experiment [1] was 100%; on kinase domain of PDGFRβ, 99%; at kinase domain of cKIT it was 100%.
On to `CNC(=O)c1cc(Oc2ccc3nc(NC4CCN(C(C)=O)CC4)sc3c2)ccn1` [Example 307, 4-(2-(1-acetylpiperidin-4-ylamino)benzo[d]thiazol-6-yloxy)-N-methylpicolinamide], for which the inhibition at 1 µM in experiment [1] was found to be 90%; on kinase domain of PDGFRβ, 6%; at kinase domain of cKIT, 15%.
The matching figures for `CNC(=O)c1cc(Oc2ccc3nc(N[C@H]4CCCNC4)sc3c2)ccn1` [Example 332, (S)-N-methyl-4-(2-(piperidin-3-ylamino)benzo[d]thiazol-6-yloxy)picolinamide]: 48%, 10% and 38%.
Taken in the same sequence, the figures for `CNC(=O)c1cc(Oc2ccc3nc(N[C@H](C(=O)OC)c4ccccc4)oc3c2)ccn1` [Compound 55, (S)-[6-(2-Methylcarbamoyl-pyridin-4-yloxy)-benzooxazol-2-ylamino]-phenyl-acetic acid methyl ester] were 97%, 11% and 21%.
For the compound `CNC(=O)c1cc(Oc2ccc3nc(N[C@H]4CCCC[C@H]4NC(=O)c4ccccc4)sc3c2)ccn1` [Example 312, 4-(2-((1S,2R)-2-benzamidocyclohexylamino)benzo[d]thiazol-6-yloxy)-N-methylpicolinamide], the inhibition at 1 µM in experiment [1] stood at 76%; on kinase domain of PDGFRβ, 14%; at kinase domain of cKIT it was 0%.

These data come from patent US8173689B2 (Novartis AG, priority 2006, dated 2012).
